Data reported in ChEMBL document CHEMBL3745610, “A dimeric urea of the bisabolene sesquiterpene from the Okinawan marine sponge Axinyssa sp. inhibits protein tyrosine phosphatase 1B activity in Huh-7 human hepatoma cells” (Bioorg Med Chem Lett, 2016).
The source made the active and inactive calls. No cut-off for these calls is given here.

Columns and labels:
[1] = Cytotoxicity against human EJ1 cells assessed as cell viability after 72 hrs by WST-1 assay; assay type: cell-based; settings: EJ1, 72 h
[2] = Cytotoxicity against human HuH7 cells assessed as cell viability after 72 hrs by WST-1 assay; assay type: cell-based; settings: Huh-7, 72 h
[3] = biological target: T1, Tyrosine-protein phosphatase non-receptor type 1 (Homo sapiens) (UniProt P18031); test: Inhibition of recombinant human PTP1B using pNPP as substrate at 36 uM incubated for 10 mins prior to substrate addition measured after 30 mins by microplate reader analysis
T1 sequence (whole entry): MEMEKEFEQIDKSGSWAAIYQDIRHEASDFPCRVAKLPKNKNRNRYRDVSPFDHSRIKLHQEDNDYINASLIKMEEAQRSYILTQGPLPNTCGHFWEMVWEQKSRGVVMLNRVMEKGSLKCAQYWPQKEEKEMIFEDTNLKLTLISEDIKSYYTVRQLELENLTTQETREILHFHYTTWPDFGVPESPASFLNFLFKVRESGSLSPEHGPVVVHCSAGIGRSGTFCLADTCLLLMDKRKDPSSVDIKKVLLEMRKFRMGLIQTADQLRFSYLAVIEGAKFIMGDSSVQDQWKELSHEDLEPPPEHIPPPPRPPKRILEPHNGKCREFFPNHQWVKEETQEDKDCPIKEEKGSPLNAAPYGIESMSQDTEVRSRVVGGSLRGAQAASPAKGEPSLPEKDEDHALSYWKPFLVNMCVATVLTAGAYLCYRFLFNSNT

[4] = biological target: T2, Tyrosine-protein phosphatase non-receptor type 1 (Homo sapiens, UniProt P18031); test: Inhibition of recombinant human PTP1B using pNPP as substrate incubated for 10 mins prior to substrate addition measured after 30 mins by microplate reader analysis
T2 sequence (P18031 whole entry): T1 sequence (whole entry)

[5] = biological target: T1, Tyrosine-protein phosphatase non-receptor type 1 (Homo sapiens); test: Inhibition of recombinant human PTP1B using pNPP as substrate at 24 uM incubated for 10 mins prior to substrate addition measured after 30 mins by microplate reader analysis
[6] = biological target: T1, Tyrosine-protein phosphatase non-receptor type 1 (Homo sapiens); test: Inhibition of PTP1B in human Huh7 cells assessed as increase in phosphorylated Akt level at 20 uM after 2 hrs by Western blot analysis; assay type: cell-based; settings: Huh-7
[7] = biological target: T1, Tyrosine-protein phosphatase non-receptor type 1 (Homo sapiens); test: Inhibition of PTP1B in human Huh7 cells assessed as increase in phosphorylated Akt level at 50 uM after 2 hrs by Western blot analysis; assay type: cell-based; settings: Huh-7
[8] = biological target: T1, Tyrosine-protein phosphatase non-receptor type 1 (Homo sapiens); test: Inhibition of PTP1B in human Huh7 cells assessed as increase in insulin-stimulated phosphorylated Akt level at 20 uM preincubated for 2 hrs followed by insulin stimulation for 5 mins by Western blot analysis; assay type: cell-based; settings: Huh-7
[9] = biological target: T1, Tyrosine-protein phosphatase non-receptor type 1 (Homo sapiens); test: Inhibition of PTP1B in human Huh7 cells assessed as increase in insulin-stimulated phosphorylated Akt level at 50 uM preincubated for 2 hrs followed by insulin stimulation for 5 mins by Western blot analysis; assay type: cell-based; settings: Huh-7
[10] = biological target: T1, Tyrosine-protein phosphatase non-receptor type 1 (Homo sapiens); test: Inhibition of PTP1B in human Huh7 cells assessed as increase in insulin-stimulated phosphorylated Akt level preincubated for 2 hrs followed by insulin stimulation for 5 mins by Western blot analysis; assay type: cell-based; settings: Huh-7

**Q.** Which IC50 [1] does the source give for CC(C)[C@@H]1CC[C@](C)(N=C=S)[C@@H]2CC[C@@](C)(O)C=C12 [AXINISOTHIOCYANATE J] here?
**A.** > 50 µM

**Q.** And the IC50 [2]?
**A.** > 50 µM

**Q.** What about the inhibition [3] of the same compound?
**A.** 50%

**Q.** For CC1=C[C@H]2[C@@H](CC1)[C@@](C)(N=C=S)CC[C@H]2C(C)C, which IC50 [1] is on record?
**A.** > 50 µM

**Q.** And the IC50 [2]?
**A.** > 50 µM

**Q.** And the IC50 [4]?
**A.** 17 µM

**Q.** With C=C(C)[C@@H](C)/C=C/[C@@H](C)[C@H]1CC[C@@H]2[C@]1(C)CC[C@H]1[C@]23C=C[C@]2(C[C@@H](O)CC[C@]12C)OO3 as the compound, how does the inhibition [5] read?
**A.** 50%

**Q.** What about the IC50 [1] of the same compound?
**A.** 21 µM

**Q.** What about the IC50 [2] of the same compound?
**A.** 26 µM

**Q.** For COc1cccc2c1C(=O)c1c(O)c3c(c(O)c1C2=O)C[C@@](O)(C(=O)CO)C[C@@H]3O[C@H]1C[C@H](N)[C@H](O)[C@H](C)O1 [DOXORUBICIN], which IC50 [1] is on record?
**A.** 0.023 µM

**Q.** For CC(C)=CCC[C@](C)(N)[C@H]1CC=C(C)CC1, which IC50 [1] is on record?
**A.** > 50 µM

**Q.** What about the inhibition [6] of the same compound?
**A.** inactive

**Q.** And the inhibition [7]?
**A.** inactive

**Q.** And the IC50 [2]?
**A.** > 50 µM

**Q.** What about the IC50 [4] of the same compound?
**A.** > 45 µM

**Q.** What about the inhibition [8] of the same compound?
**A.** inactive

**Q.** And the inhibition [9]?
**A.** inactive

**Q.** Which inhibition [10] does the source give for CC(C)=CCC[C@](C)(NC(=O)N[C@@](C)(CCC=C(C)C)[C@H]1CC=C(C)CC1)[C@H]1CC=C(C)CC1 here?
**A.** Dose-dependent effect

**Q.** And the IC50 [1]?
**A.** > 50 µM

**Q.** What about the inhibition [6] of the same compound?
**A.** inactive

**Q.** What about the inhibition [7] of the same compound?
**A.** inactive

**Q.** And the IC50 [2]?
**A.** > 50 µM

**Q.** And the IC50 [4]?
**A.** 1.9 µM
